Patent publication US10828301B2, “2,4-pyrimidinediamine compounds and their uses” (Rigel Pharmaceuticals, Inc, priority 2002, dated 2020)

Columns and labels:
[1] = test system: cultured human mast cells (CHMC); assay: CHMC low cell density IgE activation: tryptase and LTC4 assays; assay type: cell-based
How it was run: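 Cultured human mast cells at low density (1000-1500 per well) rested 1 h at 37° C, then stimulated with anti-IgE for 30 min at 37° C. Supernatant tryptase measured with fluorogenic substrate (30 min, room temperature); LTC4 quantified by ELISA on diluted supernatant.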

[2] = test system: cultured human mast cells (CHMC); assay: CHMC low cell density ionomycin activation: tryptase assay; assay type: cell-based; conditions: read-out: CHMC Ionomycin Tryptase
[3] = Homo sapiens, Mast cell, Low Density CHMC, anti-IgE activation, tryptase readout, read-out: CHMC anti-IgE Tryptase
[4] = Homo sapiens, Mast cell, Low Density CHMC, ionomycin activation, tryptase readout

SMILES	IC50 [1, 3]	IC50 [2, 4]	further results
OCCOc1ccc(Nc2ncc(F)c(Nc3ccc4oc(CO)cc4c3)n2)cc1 [Compound R935174, 5-Fluoro-N2-[4-(2-hydroxyethoxy)phenyl]-N4-(2-hydroxymethylbenzofur-5-yl)-2,4-pyrimidinediamine]	1.38 µM	> 10 µM	
Oc1cccc(Nc2nc(Nc3cccc(-c4nnn[nH]4)c3)ncc2F)c1 [Compound R926842, 5-Fluoro-N4-(3-hydroxyphenyl)-N2-[3-(tetrazol-5-yl)phenyl]-2,4-pyrimidinediamine]	7.73 µM	> 10 µM	
OCCOc1ccc(Nc2ncc(F)c(Nc3ccc4c(c3)OCCO4)n2)cc1 [Compound R945144, N4-(3,4-Ethylenedioxyphenyl)-5-fluoro-N2-[4-(2-hydroxyethyloxy)phenyl]-2,4-pyrimidinediamine]	0.244 µM	> 10 µM	
Brc1cnc(Nc2ccc3c(c2)OCCO3)nc1Nc1ccc2c(c1)OCCO2 [Compound R925771, N2,N4-Bis(3,4-ethylenedioxyphenyl)-5-bromo-2,4-pyrimidinediamine]	0.5 µM	2.8 µM	IC50 ([1]; Homo sapiens, Mast cell, Low Density CHMC, anti-IgE activation, LTC4 readout, read-out: CHMC anti-IgE LTC4): 0.22 µM
Fc1cnc(NCC2COc3ccccc3O2)nc1Nc1ccc2c(c1)OCCO2 (stereo not shown) [Compound R950206, N2-(2,3-Dihydro-1,4-benzodioxin-2-ylmethyl)-N4-(3,4-ethylenedioxyphenyl)-5-fluoro-2,4-pyrimidinediamine]	3.66 µM	> 10 µM	
CCOC(=O)c1cc2cccc(Nc3cc(Nc4cccc(O)c4)c(F)cn3)c2[nH]1 [Compound R926814, N2-(2-Ethoxycarbonylindol-7-yl)-5-fluoro-N4-(3-hydroxyphenyl)-2,4-pyridinediamine]	1.1 µM	> 10 µM	
c1ccc(-c2ccccc2Nc2ccnc(Nc3ccccc3-c3ccccc3)n2)cc1 [Compound R925804, N2,N4-Bis(2-phenylphenyl)-2,4-pyrimidinediamine]	> 10 µM	> 10 µM	
CC(C)(CO)c1ccc(Nc2nc(Nc3cccc(OCCO)c3)ncc2F)cc1 [Compound R935161, 5-Fluoro-N4-[4-(2-hydroxy-1,1-dimethylethyl)phenyl]-N2-[3-(2-hydroxyethoxy)phenyl]-2,4-pyrimidinediamine]	0.277 µM	> 10 µM	
Oc1cccc(Nc2nc(Nc3cccc(-c4cnco4)c3)ncc2F)c1 [Compound R926831, 5-Fluoro-N4-(3-hydroxyphenyl)-N2-[3-(1,3-oxazol-5-yl)phenyl]-2,4-pyrimidinediamine]	0.133 µM	10 µM	
CCOC(=O)C=Nc1cccc(Nc2ncc(F)c(Nc3cccc(N=CC(=O)OCC)c3)n2)c1 [Compound R950184, N2,N4-Bis(3-ethoxycarbonylmethyleneaminophenyl)-5-fluoro-2,4-pyrimidinediamine]	2.22 µM	> 10 µM	
COCCOc1cccc(Nc2ncc(F)c(Nc3cccc(OCCOC)c3)n2)c1 [Compound R935076, N2,N4-Bis[3-(2-methoxyethyl)oxyphenyl]-5-fluoro-2,4-pyrimidinediamine]	4.15 µM	> 10 µM	
Nc1cccc(Nc2ncc(F)c(Nc3cccc(O)c3)n2)c1 [Compound R950227, N2-(3-Aminophenyl)-5-fluoro-N4-(3-hydroxyphenyl)-2,4-pyrimidinediamine]	1.03 µM	> 10 µM	
Oc1cccc(Nc2nc(Cl)c(Cl)c(Nc3cccc(O)c3)n2)c1 [Compound R926591, N2,N4-Bis(3-hydroxyphenyl)-5,6-dichloro-2,4-pyrimidinediamine]	2.62 µM	> 10 µM	
CC(=O)Nc1ccc(Nc2ncc(F)c(Nc3ccc(NC(C)=O)cc3)n2)cc1 [Compound R940222, N2,N4-Bis-(4-Acetamidophenyl)-5-fluoro-2,4-pyrimidinediamine]	> 10 µM	> 10 µM	
Oc1cccc(Nc2nc(NCc3csc4ccccc34)ncc2F)c1 [Compound R945164, N2-(Benzothiophen-3-ylmethyl)-5-fluoro-N4-(3-hydroxyphenyl)-2,4-pyrimidinediamine]	10 µM	> 10 µM	
Oc1cccc(Nc2ncc(F)c(Nc3ccc4[nH]ccc4c3)n2)c1 [Compound R926932, 5-Fluoro-N2-(3-hydroxyphenyl)-N4-[(1H)-indol-5-yl]-2,4-pyrimidinediamine]	0.31 µM	> 10 µM	
CC(C)c1ccc(Nc2ncc(F)c(Nc3ccc4c(c3)OCCO4)n2)cc1 [Compound R926790, N4-(3,4-Ethylenedioxyphenyl)-5-fluoro-N2-(4-isopropylphenyl)-2,4-pyrimidinediamine]	0.462 µM	7.41 µM	
O=[N+]([O-])c1cccc(Nc2ncc(F)c(Nc3cccc([N+](=O)[O-])c3)n2)c1 [Compound R950160, N2,N4-Bis(3-nitrophenyl)-5-fluoro-2,4-pyrimidinediamine]			IC50 ([1]; Homo sapiens, Mast cell, read-out: CHMC anti-IgE Tryptase): 1 µM; IC50 ([2]; Homo sapiens, Mast cell): > 10 µM
COC(=O)C1Cc2cc(Nc3ncc(F)c(Nc4ccc(F)c(F)c4)n3)ccc2O1 (racemic) [Compound R927030, (±)-N4-(3,4-Difluorophenyl)-N2-(2,3-dihydro-2-methoxycarbonylbenzofuran-5-yl)-5-fluoro-2,4-pyrimidinediamine]	0.26 µM	> 10 µM	
Oc1ccc(CCNc2ccnc(NCCc3ccc(O)cc3)n2)cc1 [Compound R925790, N2,N4-Bis[2-(4-hydroxyphenyl)ethyl]-2,4-pyrimidinediamine]	> 10 µM	> 10 µM	
Cc1cc(Nc2ncc(F)c(Nc3ccc4c(c3)OCCO4)n2)c(C)cc1O [Compound R926792, N2-(2,5-Dimethyl-4-hydroxyphenyl)-N4-(3,4-ethylenedioxyphenyl)-5-fluoro-2,4-pyrimidinediamine]	3.2 µM	> 10 µM	
Cc1cc(CNc2ncc(F)c(Nc3cccc(O)c3)n2)c(C)o1 [Compound R945162, N2-[(2,5-Dimethyl-3-furyl)methyl]-5-fluoro-N4-(3-hydroxyphenyl)-2,4-pyrimidinediamine]	> 10 µM	> 10 µM	
Oc1cccc(Nc2nc(Nc3ccc4[nH]ccc4c3)ncc2F)c1 [Compound R926749, 5-Fluoro-N4-(3-hydroxyphenyl)-N2-[(1H)-indol-5-yl]-2,4-pyrimidinediamine]	0.472 µM	> 10 µM	
Nc1cc(Nc2ncc(F)c(Nc3ccc(Nc4ccccc4)c(N)c3)n2)ccc1Nc1ccccc1 [Compound R950125, N2,N4-Bis[3-amino-4-(N-phenylamino)-phenyl]-5-fluoro-2,4-pyrimidinediamine]	1.38 µM	6.3 µM	
COC(=O)Cn1ncc2cc(Nc3ncc(F)c(Nc4cccc(O)c4)n3)ccc21 [Compound R935237, 5-Fluoro-N4-(3-hydroxyphenyl)-N2-[1-(methoxycarbonyl)methyl-indazoline-5-yl]-2,4-pyrimidinediamine]			IC50 ([1]; Low Density CHMC, anti-IgE activation, tryptase readout, read-out: CHMC anti-IgE Tryptase): 0.24 µM; IC50 ([2]; Low Density CHMC, ionomycin activation, tryptase readout): > 10 µM
Oc1cccc(Nc2ncc(F)c(Nc3ccc(OC(F)(F)F)c(Cl)c3)n2)c1 [Compound R920411, N4-(3-Chloro-4-trifluoromethoxyphenyl)-5-fluoro-N2-(3-hydroxyphenyl)-2,4-pyrimidinediamine]	0.564 µM	> 10 µM	
COc1cc(-c2ccccc2)c(C)cc1Nc1ccnc(Nc2cc(C)c(-c3ccccc3)cc2OC)n1 [Compound R925808, N2,N4-Bis(2-methoxy-5-methyl-4-phenylphenyl)-2,4-pyrimidinediamine]	> 10 µM	> 10 µM	
